In general, Km refers to the substrate concentration at which the rate is half of its maximum. As usually defined, the IC50 is the concentration at which inhibition is half-maximal. A word on the Vmax: it is the top rate of the reaction or transport when substrate is in excess.

Consider 17 molecules from ChEMBL document CHEMBL4390695, “Veratric acid derivatives containing benzylidene-hydrazine moieties as promising tyrosinase inhibitors and free radical scavengers” (Bioorg Med Chem, 2019).

Active and inactive are the calls of the source. No cut-off for these calls is given here.

To fix the notation:
T1: Tyrosinase (Agaricus bisporus) (UniProt O42713)
T1 sequence (whole entry): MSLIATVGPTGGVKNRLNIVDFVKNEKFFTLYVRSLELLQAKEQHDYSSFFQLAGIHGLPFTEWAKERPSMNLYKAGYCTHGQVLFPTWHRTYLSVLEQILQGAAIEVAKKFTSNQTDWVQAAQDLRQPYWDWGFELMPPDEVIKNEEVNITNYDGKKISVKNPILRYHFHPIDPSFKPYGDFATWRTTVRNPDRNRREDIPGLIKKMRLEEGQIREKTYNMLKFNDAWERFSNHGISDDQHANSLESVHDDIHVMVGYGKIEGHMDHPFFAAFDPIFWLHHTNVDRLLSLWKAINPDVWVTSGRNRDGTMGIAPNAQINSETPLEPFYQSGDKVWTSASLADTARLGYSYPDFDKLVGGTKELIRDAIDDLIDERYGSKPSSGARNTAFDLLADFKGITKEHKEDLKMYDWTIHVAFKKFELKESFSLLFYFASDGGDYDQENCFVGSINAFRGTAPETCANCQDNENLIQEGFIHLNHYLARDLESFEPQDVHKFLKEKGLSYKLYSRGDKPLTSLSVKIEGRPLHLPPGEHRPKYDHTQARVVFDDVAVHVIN

T2: Tyrosinase (Agaricus bisporus, UniProt O42713)
T2 sequence (O42713 whole entry): T1 sequence (whole entry)

B1: Tyrosinase (Agaricus bisporus), O42713 (protein)
chain: T1 sequence (whole entry)

Compound in one data set: COc1ccc(C(=O)N/N=C/c2ccc(Cl)cc2)cc1OC
In words: Competitive inhibition of mushroom tyrosinase assessed as reduction in dopachrome formation by measuring substrate Km at 50 uM using L-DOPA as substrate preincubated for 20 mins followed by substrate addition by spectrophotometry based Lineweaver-Burk plot analysis (reference value: […] mM). The conditions noted are these: Agaricus bisporus.
With B1, the Km was 5.88 mM.

A further data set deals with T1, Tyrosinase (Agaricus bisporus). The experiment in a line: Competitive inhibition of mushroom tyrosinase assessed as reduction in dopachrome formation at 50 uM using L-DOPA as substrate preincubated for 20 mins followed by substrate addition by spectrophotometry based Lineweaver-Burk plot analysis.
Conditions: not given
Regarding `COc1ccc(C(=O)N/N=C/c2ccc(Cl)cc2)cc1OC`, the inhibition result was “Active”.

A further data set deals with T2, Tyrosinase. The experiment in a line: Inhibition of mushroom tyrosinase assessed as reduction in dopachrome formation using L-DOPA as substrate preincubated for 20 mins followed by substrate addition by spectrophotometry.
Conditions: not given
With `COc1ccc(C(=O)N/N=C/c2ccc(Cl)cc2)cc1OC`, the IC50 amounted to 19.7 µM. The same measure, in the same setting: the figure for `COc1ccc(C(=O)N/N=C/c2ccc([N+](=O)[O-])cc2)cc1OC` is more than 50 µM; for `COc1cc(/C=N/NC(=O)c2ccc(OC)c(OC)c2)ccc1O` it is more than 50 µM. On the same count and under the same terms, the figure for `COc1ccccc1/C=N/NC(=O)c1ccc(OC)c(OC)c1` is 35.2 µM; for `COc1ccc(/C=N/NC(=O)c2ccc(OC)c(OC)c2)cc1OC` it is more than 50 µM. Same read-out and setting: the figure for `COc1ccc(C(=O)N/N=C/c2ccc(Br)cc2)cc1OC` is more than 50 µM. As for `COc1ccc(/C=N/NC(=O)c2ccc(OC)c(OC)c2)cc1`, the IC50 was more than 50 µM. Same read-out and setting: the figure for `COc1ccc(C(=O)N/N=C/c2ccc(N(C)C)cc2)cc1OC` is more than 50 µM. On to `COc1ccc(C(=O)N/N=C/c2cc(OC)c(OC)c(OC)c2)cc1OC`, for which the IC50 stood at 37.4 µM. Still for that read-out and setting: the figure for `COc1ccc(C(=O)N/N=C/c2cccc([N+](=O)[O-])c2)cc1OC` is more than 50 µM; for `COc1ccc(C(=O)N/N=C/c2ccc(O)cc2O)cc1OC` it is 31.5 µM.

As for `COc1ccc(C(=O)N/N=C/c2cccc(O)c2O)cc1OC`, the IC50 stood at 20.6 µM.

On to `COc1ccc(C(=O)N/N=C/c2ccc(O)cc2)cc1OC`, for which the IC50 is more than 50 µM.

For `COc1ccc(C(=O)N/N=C/c2ccc(OC(C)=O)c(OC)c2)cc1OC`, the IC50 amounted to 28.3 µM.

As for `CCOc1cc(/C=N/NC(=O)c2ccc(OC)c(OC)c2)ccc1O`, the IC50 was more than 50 µM.

On to `COc1ccc(C(=O)N/N=C/c2cc(OC)c(O)c(OC)c2)cc1OC`, for which the IC50 is more than 50 µM.

Compound in another data set: COc1ccc(C(=O)N/N=C/c2ccc(Cl)cc2)cc1OC
In words: Competitive inhibition of mushroom tyrosinase assessed as reduction in dopachrome formation by measuring substrate Vmax at 50 uM using L-DOPA as substrate preincubated for 20 mins followed by substrate addition by spectrophotometry based Lineweaver-Burk plot analysis (reference value: […] mM/min). Particulars: Agaricus bisporus.
Consider B1, for which the Vmax came to 0.15 mM/min.
